The values that follow come from US9676782B2, “Substituted pyrazolo[1,5-a]pyrazines as negative allosteric modulators of metabotropic glutamate receptor 3” (Vanderbilt University, priority 2014, dated 2017).

pEC50, pIC50: −log10 of the molar value. Where two headings read alike, the source gives them in different places. Some results are limits rather than exact numbers.

A word on the pIC50: it is the IC50 on a negative log10 scale, so that one unit is a factor of ten. What is called pEC50 is the negative decadic logarithm of the EC50, by convention in mol/L.

One assay addresses rat mGlu3 (Rattus norvegicus (Rat), UniProt P31422). Briefly: mGlu3 Ca2+ flux assay. The assay is classed as cell-based. The settings on record: for pIC50: read-out: rat mGlu3 IC50; for remaining activity at 30 µM: amplitude of response at 30 μM test compound as % of maximal response to glutamate, read-out: rat mGlu3 Glu max (%). In a few lines: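 This calcium mobilization assay used rat mGlu3 cells cultured overnight (37° C., 5% CO2) and read on the FDSS7000 after a 10 minute room-temperature incubation in 20 μL assay buffer. Each of 360 readings per well was divided by its initial value (F/F0). Potency came from fitting normalized responses against log concentration with an unconstrained 4 parameter logistic equation, weighting triplicate points equally.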
For orientation: Calcium flux is commonly read through the fluorescence of an indicator in the cells.

The next assay concerns the target rat mGlu5 (Rattus norvegicus (Rat), UniProt P31424). Put plainly: mGlu5 Ca2+ flux assay. The assay is classed as cell-based. The settings on record: for Fold selectivity (mGlu3 vs. mGlu5): ratio of rat mGlu5 EC50 or IC50 to rat mGlu3 IC50; for Emax at 30 µM: read-out: rat mGlu5 Glu max (%). The method, boiled down:
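Ca2+ flux read kinetically (FDSS7000) after overnight culture at 37° C/5% CO2 and a 5 min room-temperature buffer step following dye removal. Signals expressed per well as F/F0 and normalized to peak glutamate response; EC50 fitted by free 4-parameter logistic, three replicates per concentration equally weighted.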

Setting [1] is: NAM potency, decrease of glutamate EC80 response, >30,000 = no measurable activity, >10,000 = no plateau.
Setting [2] is: read-out: rat mGlu5 EC50 or IC50.
The mark [3] stands for this setting: PAM, amplitude of response at 30 μM test compound as % of maximal response to glutamate.

rat mGlu5, sequence (P31424 21-1203): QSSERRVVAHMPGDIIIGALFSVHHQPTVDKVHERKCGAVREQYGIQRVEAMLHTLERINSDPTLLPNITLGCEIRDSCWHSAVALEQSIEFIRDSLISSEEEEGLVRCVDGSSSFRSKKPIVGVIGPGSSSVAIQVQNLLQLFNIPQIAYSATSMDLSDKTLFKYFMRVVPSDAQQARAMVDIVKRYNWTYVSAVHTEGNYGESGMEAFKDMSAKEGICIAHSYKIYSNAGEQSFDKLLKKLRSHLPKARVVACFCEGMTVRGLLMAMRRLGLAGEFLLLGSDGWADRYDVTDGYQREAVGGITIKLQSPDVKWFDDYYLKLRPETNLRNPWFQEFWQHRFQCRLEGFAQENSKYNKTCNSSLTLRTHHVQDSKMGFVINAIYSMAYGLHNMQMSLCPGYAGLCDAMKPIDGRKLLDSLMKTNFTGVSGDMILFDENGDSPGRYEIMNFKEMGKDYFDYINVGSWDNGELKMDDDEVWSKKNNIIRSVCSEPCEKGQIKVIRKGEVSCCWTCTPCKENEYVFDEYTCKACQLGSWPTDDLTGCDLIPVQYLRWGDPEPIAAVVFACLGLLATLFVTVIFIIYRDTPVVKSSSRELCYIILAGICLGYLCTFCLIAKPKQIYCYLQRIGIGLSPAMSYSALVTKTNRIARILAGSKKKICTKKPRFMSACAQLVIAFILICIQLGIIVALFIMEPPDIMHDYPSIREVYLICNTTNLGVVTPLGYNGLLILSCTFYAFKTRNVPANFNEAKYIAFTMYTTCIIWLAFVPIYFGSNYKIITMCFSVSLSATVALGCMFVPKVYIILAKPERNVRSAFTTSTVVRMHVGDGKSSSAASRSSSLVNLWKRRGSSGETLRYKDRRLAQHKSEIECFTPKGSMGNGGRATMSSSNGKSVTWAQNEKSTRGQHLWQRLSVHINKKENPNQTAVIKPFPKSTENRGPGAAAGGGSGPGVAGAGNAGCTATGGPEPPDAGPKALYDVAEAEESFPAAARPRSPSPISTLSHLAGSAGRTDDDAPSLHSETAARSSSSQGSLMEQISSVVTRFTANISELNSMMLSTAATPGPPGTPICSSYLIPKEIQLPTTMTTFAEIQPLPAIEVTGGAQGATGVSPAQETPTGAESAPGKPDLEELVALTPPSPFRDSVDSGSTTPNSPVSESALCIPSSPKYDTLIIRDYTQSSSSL
rat mGlu3, sequence (P31422 23-879): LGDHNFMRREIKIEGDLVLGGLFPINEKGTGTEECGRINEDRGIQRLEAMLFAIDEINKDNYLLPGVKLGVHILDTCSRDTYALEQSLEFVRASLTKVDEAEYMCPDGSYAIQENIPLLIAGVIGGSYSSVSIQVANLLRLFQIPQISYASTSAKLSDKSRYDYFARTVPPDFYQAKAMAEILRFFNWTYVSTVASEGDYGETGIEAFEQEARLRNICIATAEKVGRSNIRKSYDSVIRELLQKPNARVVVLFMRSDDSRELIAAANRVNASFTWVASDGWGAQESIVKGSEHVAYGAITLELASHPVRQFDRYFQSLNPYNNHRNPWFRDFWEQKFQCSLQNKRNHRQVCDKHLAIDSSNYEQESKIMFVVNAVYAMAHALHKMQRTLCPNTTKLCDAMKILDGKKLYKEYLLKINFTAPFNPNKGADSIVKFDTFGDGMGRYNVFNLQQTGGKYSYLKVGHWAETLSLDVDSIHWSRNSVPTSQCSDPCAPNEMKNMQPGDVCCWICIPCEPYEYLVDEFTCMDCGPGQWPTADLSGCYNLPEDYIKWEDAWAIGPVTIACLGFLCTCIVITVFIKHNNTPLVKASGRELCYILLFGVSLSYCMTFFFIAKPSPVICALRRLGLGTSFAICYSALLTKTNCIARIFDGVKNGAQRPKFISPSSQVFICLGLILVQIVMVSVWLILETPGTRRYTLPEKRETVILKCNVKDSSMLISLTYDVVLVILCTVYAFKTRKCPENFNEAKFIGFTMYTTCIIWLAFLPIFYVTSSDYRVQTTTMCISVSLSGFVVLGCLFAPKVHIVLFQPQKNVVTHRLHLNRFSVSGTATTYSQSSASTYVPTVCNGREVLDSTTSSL

As to `COc1ccc(N(C)Cc2cc3n(n2)CCN(c2ccccc2F)C3=O)cc1` [Compound 105, 5-(2-fluorophenyl)-2-(((4-methoxyphenyl)(methyl)amino)methyl)-6,7-dihydropyrazolo[1,5-a]pyrazin-4(5H)-one], the pIC50 on rat mGlu3 (setting [1]) was 6.06. At rat mGlu3, the remaining activity at 30 µM is 2.05%. Besides, the “Fold selectivity (mGlu3 vs. mGlu5)” value at rat mGlu5 is more than 34. Also, the pEC50 on rat mGlu5 (setting [2]) is less than 4.52.
For `COc1cccc(NCc2cc3n(n2)CCN(c2ccc(F)cc2)C3=O)c1` [Compound 10, 5-(4-fluorophenyl)-2-(((3-methoxyphenyl)amino)methyl)-6,7-dihydropyrazolo[1,5-a]pyrazin-4(5H)-one] the same measures were 5.75, 2.01%, more than 16 and less than 4.52.
For `CN(Cc1cc2n(n1)CCN(c1ccc(F)cc1)C2=O)c1ccccc1` [Compound 82, 5-(4-fluorophenyl)-2-((methyl(phenyl)amino)methyl)-6,7-dihydropyrazolo[1,5-a]pyrazin-4(5H)-one], in that order: 5.91, 1.01%, more than 24 and less than 4.52.
On to `COc1ccc(N(C)Cc2cc3n(n2)CCN(c2cc(F)cc(F)c2)C3=O)cc1` [Compound 104, 5-(3,5-difluorophenyl)-2-(((4-methoxyphenyl)(methyl)amino)methyl)-6,7-dihydropyrazolo[1,5-a]pyrazin-4(5H)-one], for which the pIC50 on rat mGlu3 (setting [1]) is 6.07. Besides, the remaining activity at 30 µM on rat mGlu3 was determined as 1.3%. At rat mGlu5, the “Fold selectivity (mGlu3 vs. mGlu5)” value is reported as more than 35. The pEC50 on rat mGlu5 (setting [2]) was less than 4.52.
For `COc1ccc(NCc2cc3n(n2)CCN(c2ccc(F)c(F)c2)C3=O)cc1` [Compound 1, 5-(3,4-Difluorophenyl)-2-(((4-methoxyphenyl)amino)methyl)-6,7-dihydropyrazolo[1,5-a]pyrazin-4(5H)-one], the remaining activity at 30 µM at rat mGlu3 was found to be 4.04%. At rat mGlu5, the “Fold selectivity (mGlu3 vs. mGlu5)” value is on record as more than 20. In addition, the pEC50 on rat mGlu5 (setting [2]) was less than 4.52.
Consider `C[C@@H]1CN(c2ccc(F)cc2)C(=O)c2cc(CNc3cccc(Cl)c3)nn21` [Compound 48, (R)-2-(((3-chlorophenyl)amino)methyl)-5-(4-fluorophenyl)-7-methyl-6,7-dihydropyrazolo[1,5-a]pyrazin-4(5H)-one], for which, on rat mGlu3, the remaining activity at 30 µM came out at 1.63% and the pIC50 was 5.78. Also, the Emax at 30 µM on rat mGlu5 (setting [3]) was 88.8%. Moreover, at rat mGlu5, the “Fold selectivity (mGlu3 vs. mGlu5)” value was more than 6.0. At rat mGlu5 (setting [2]), the pEC50 was less than 5.00.
On to `CN(Cc1cc2n(n1)CCN(c1ccc(F)cc1)C2=O)c1ccc(F)cc1` [Compound 89, 5-(4-fluorophenyl)-2-(((4-fluorophenyl)(methyl)amino)methyl)-6,7-dihydropyrazolo[1,5-a]pyrazin-4(5H)-one], for which the pIC50 on rat mGlu3 (setting [1]) is 6.33. Further, on rat mGlu3, the remaining activity at 30 µM was found to be 1.29%. Moreover, the “Fold selectivity (mGlu3 vs. mGlu5)” value at rat mGlu5 is more than 64. Also, the pEC50 at rat mGlu5 (setting [2]) was less than 4.52.
Consider `O=C1c2cc(CNc3ccccc3)nn2CCN1c1ccc(F)cc1` [Compound 2, 5-(4-fluorophenyl)-2-((phenylamino)methyl)-6,7-dihydropyrazolo[1,5-a]pyrazin-4(5H)-one], for which, at rat mGlu3 (setting [1]), the pIC50 was 5.88. Besides, on rat mGlu3, the remaining activity at 30 µM is 1.99%. For the same compound, at rat mGlu5 (setting [3]), the Emax at 30 µM amounted to 98.3%. Besides, the “Fold selectivity (mGlu3 vs. mGlu5)” value on rat mGlu5 is on record as 1.55. The pEC50 on rat mGlu5 (setting [2]) was 5.69.
As for `O=C1c2cc(CNc3ccc(C(F)(F)F)cc3)nn2CCN1c1ccc(F)cc1` [Compound 19, 5-(4-fluorophenyl)-2-(((4-(trifluoromethyl)phenyl)amino)methyl)-6,7-dihydropyrazolo[1,5-a]pyrazin-4(5H)-one], at rat mGlu3, the pIC50 is less than 4.52. Moreover, the pEC50 at rat mGlu5 (setting [2]) was less than 4.52.
Consider `O=C1c2cc(CNc3cc(F)ccc3F)nn2CCN1c1ccc(F)cc1` [Compound 29, 2-(((2,5-difluorophenyl)amino)methyl)-5-(4-fluorophenyl)-6,7-dihydropyrazolo[1,5-a]pyrazin-4(5H)-one], for which the pIC50 at rat mGlu3 (setting [1]) was 6.29. The remaining activity at 30 µM on rat mGlu3 stood at 2.45%. Besides, the Emax at 30 µM at rat mGlu5 (setting [3]) was found to be 87.5%. Also, the “Fold selectivity (mGlu3 vs. mGlu5)” value on rat mGlu5 is on record as 3.23. The pEC50 on rat mGlu5 (setting [2]) is 5.79.
For `CN(Cc1cc2n(n1)CCN(c1ccc(F)cc1)C2=O)c1cccc(F)c1` [Compound 86, 5-(4-fluorophenyl)-2-(((3-fluorophenyl)(methyl)amino)methyl)-6,7-dihydropyrazolo[1,5-a]pyrazin-4(5H)-one], in that order: 6.23, 1.68%, 110%, 13.06 and 5.11.
For `O=C1c2cc(CNc3cc(F)cc(F)c3)nn2CCN1c1ccc(F)cc1` [Compound 30, 2-(((3,5-difluorophenyl)amino)methyl)-5-(4-fluorophenyl)-6,7-dihydropyrazolo[1,5-a]pyrazin-4(5H)-one], in that order: 6.13, 2.71%, 102%, 8.73 and 5.19.
Take `COc1ccc(N(C)Cc2cc3n(n2)CCN(c2cccc(C#N)c2)C3=O)cc1` [Compound 116, 3-(2-(((4-methoxyphenyl)(methyl)amino)methyl)-4-oxo-6,7-dihydropyrazolo[1,5-a]pyrazin-5(4H)-yl)benzonitrile]: the pIC50 at rat mGlu3 (setting [1]) was 5.66. Further, on rat mGlu3, the remaining activity at 30 µM was determined as 1.55%. Further, the “Fold selectivity (mGlu3 vs. mGlu5)” value on rat mGlu5 was more than 13. Further, the pEC50 on rat mGlu5 (setting [2]) was less than 4.52.
With `O=C1c2cc(CNc3cc(Cl)ccn3)nn2CCN1c1ccc(F)cc1` [Compound 164, 2-(((4-chloropyridin-2-yl)amino)methyl)-5-(4-fluorophenyl)-6,7-dihydropyrazolo[1,5-a]pyrazin-4(5H)-one], at rat mGlu3 (setting [1]), the pIC50 is 5.88. Also, the remaining activity at 30 µM at rat mGlu3 stood at 2.99%. Further, the Emax at 30 µM at rat mGlu5 (setting [3]) was 35.3%. The “Fold selectivity (mGlu3 vs. mGlu5)” value on rat mGlu5 is more than 7.5. The pEC50 on rat mGlu5 (setting [2]) was less than 5.00.
In the case of `Cc1cccc(NCc2cc3n(n2)[C@H](C)CN(c2ccc(F)cc2)C3=O)c1` [Compound 50, (R)-5-(4-fluorophenyl)-7-methyl-2-((m-tolylamino)methyl)-6,7-dihydropyrazolo[1,5-a]pyrazin-4(5H)-one], at rat mGlu3 (setting [1]), the pIC50 is 5.52. Further, the remaining activity at 30 µM at rat mGlu3 came to 0.09%. Besides, the “Fold selectivity (mGlu3 vs. mGlu5)” value on rat mGlu5 was more than 9.8. For the same compound, at rat mGlu5 (setting [2]), the pEC50 is less than 4.52.
`O=C1c2cc(CNc3ccc(F)cn3)nn2CCN1c1ccc(F)cc1` [Compound 155, 5-(4-fluorophenyl)-2-(((5-fluoropyridin-2-yl)amino)methyl)-6,7-dihydropyrazolo[1,5-a]pyrazin-4(5H)-one]: the negative-log IC50 (pIC50) was 5.84 at rat mGlu3 (setting [1]) and less than 5.00 on rat mGlu5 (compound noted as NAM or partial antagonist (PAnt) at mGlu5, glutamate EC80, read-out: rat mGlu5 EC50 or IC50). In addition, at rat mGlu3, the remaining activity at 30 µM came to 1.5%. On rat mGlu5 (compound noted as NAM or partial antagonist (PAnt) at mGlu5, response at 30 μM as % of maximal glutamate response), the Emax at 30 µM stood at 11.3%. Also, on rat mGlu5, the “Fold selectivity (mGlu3 vs. mGlu5)” value is more than 6.8.
As for `O=C1c2cc(CNc3ccc(OC(F)F)cc3F)nn2CCN1c1ccc(Cl)cc1F` [Compound 149, 5-(4-chloro-2-fluorophenyl)-2-(((4-(difluoromethoxy)-2-fluorophenyl)amino)methyl)-6,7-dihydropyrazolo[1,5-a]pyrazin-4(5H)-one], on rat mGlu3, the remaining activity at 30 µM is 25.8% and the pIC50 was less than 5.00. In addition, the “Fold selectivity (mGlu3 vs. mGlu5)” value at rat mGlu5 is reported as more than 3. For the same compound, on rat mGlu5 (setting [2]), the pEC50 was less than 4.52.
Turning to `Cc1ccccc1NCc1cc2n(n1)[C@H](C)CN(c1ccc(F)cc1)C2=O` [Compound 44, (R)-5-(4-fluorophenyl)-7-methyl-2-((o-tolylamino)methyl)-6,7-dihydropyrazolo[1,5-a]pyrazin-4(5H)-one], on rat mGlu3 (setting [1]), the pIC50 was 5.57. The remaining activity at 30 µM on rat mGlu3 was -0.26%. At rat mGlu5 (setting [3]), the Emax at 30 µM stood at 23.9%. The “Fold selectivity (mGlu3 vs. mGlu5)” value at rat mGlu5 is more than 3.7. The pEC50 at rat mGlu5 (setting [2]) is less than 5.00.
For `C[C@H]1CN(c2ccc(F)cc2)C(=O)c2cc(CNc3cc(F)cc(F)c3)nn21` [Compound 74, (S)-2-(((3,5-difluorophenyl)amino)methyl)-5-(4-fluorophenyl)-7-methyl-6,7-dihydropyrazolo[1,5-a]pyrazin-4(5H)-one] the same measures were 5.63, -2.19%, 59.3%, more than 4.2 and less than 5.00.
As for `O=C1c2cc(CNc3ccc(OC(F)F)cc3F)nn2CCN1c1ccccc1F` [Compound 153, 2-(((4-(difluoromethoxy)-2-fluorophenyl)amino)methyl)-5-(2-fluorophenyl)-6,7-dihydropyrazolo[1,5-a]pyrazin-4(5H)-one], the pIC50 on rat mGlu3 (setting [1]) was 6.11. Also, the remaining activity at 30 µM on rat mGlu3 was determined as 2.29%. For the same compound, on rat mGlu5, the “Fold selectivity (mGlu3 vs. mGlu5)” value is more than 38. In addition, at rat mGlu5 (setting [2]), the pEC50 was less than 4.52.
